# Reference: ChEMBL document CHEMBL1137248, “2-(3-Amino-3-deoxy-beta-D-xylofuranosyl)thiazole-4-carboxamide: a new tiazofurin analogue with potent antitumour activity” (Bioorg Med Chem Lett, 2006)
# Tests used:
# Assay type in all cases: cell-based
# HeLa = assay: Cytotoxicity against HeLa cells after 24 hrs by MTT assay; details: Homo sapiens
# Jurkat = assay: Cytotoxicity against Jurkat cells after 24 hrs by MTT assay; details: Homo sapiens
# K562 = assay: Cytotoxicity against human K562 cells after 24 hrs by MTT assay; details: K562, 24 h
# HT-29 = assay: Cytotoxicity against HT29 cells after 24 hrs by MTT assay; details: Homo sapiens, HT-29, 24 h
# MRC5 = assay: Cytotoxicity against MRC5 cells after 24 hrs by MTT assay; details: Homo sapiens, MRC5, 24 h
Compound,IC50 (HeLa),IC50 (Jurkat),IC50 (K562),IC50 (HT-29),IC50 (MRC5)
NC(=O)c1csc([C@@H]2O[C@H](CO)[C@@H](O)[C@H]2O)n1 [TIAZOFURIN],4760 nM,140 nM,5290 nM,,
CC(=O)N[C@@H]1[C@@H](O)[C@H](c2nc(C(N)=O)cs2)O[C@@H]1CO,> 100000 nM,450 nM,95 nM,1000 nM,89700 nM
NC(=O)c1csc([C@@H]2O[C@H](CO)[C@H](N)[C@H]2O)n1,280 nM,60 nM,52 nM,37 nM,> 100000 nM
